Data reported in PMC3435407, “αA-Crystallin–Derived Mini-Chaperone Modulates Stability and Function of Cataract Causing αAG98R-Crystallin” (PLoS ONE, 2012).
Blank lines part the entries; values can stand above or below the compound they belong to. Non-standard residues stand in square brackets, D forms with d. No end group written: not given here. *: point of attachment. Biotin = O=C1N[C@H]2[C@H](CS[C@H]2CCCCC(=O)*)N1; Bpa = N[C@@H](Cc1ccc(C(=O)c2ccccc2)cc1)C(=O)O

Tests used:
[1] = tested on: α-crystallin; parameters: method as in 2 sources, one per row (each row's own in cited_ref): ref [43] = [43]; PMID 8549682; doi:10.1016/s0014-4835(05)80136-8; 43 Sharma KK , Ortwerth BJ ( 1995 ) Effect of cross-linking on the chaperone-like function of alpha crystallin . Exp Eye Res 61 : 413 – 421 . 8549682 10.1016/s0014-4835(05)80136-8 ||| ref [44] = [44]; PMID 15199188; doi:10.1073/pnas.0403532101; 44 Kantorow M , Hawse JR , Cowell TL , Benhamed S , Pizarro GO , et al ( 2004 ) Methionine sulfoxide reductase A is important for lens cell viability and resistance to oxidative stress . Proc Natl Aca; details: α-crystallin in water-insoluble fraction of lens proteins; ref [43]; cited from earlier work
[2] = tested on: wild-type α-crystallin; details: modulator in 10- to 30-fold higher concentrations than α-crystallin; ref [39]–[42]; cited from earlier work
From the text: In those studies the modulator was used in 10- to 30-fold higher concentrations than the α-crystallin [39]–[42] and the conformational changes in α-crystallin in the presence of the modulator was considered to be responsible for the activity enhancement.

[3] = biological target: T1, αAG98R (Homo sapiens, UniProt P02489, G98R); assay: Photo-crosslinking, MALDI-TOF/TOF MS; format: binding; details: photolyzed; restated in the discussion
T1 construct: the full-length human αA-crystallin cDNA cloned into pET-23d (+) vector; made in house; host or cells: E. coli BL21(DE3)pLysS
T1 sequence (P02489 whole entry G98R): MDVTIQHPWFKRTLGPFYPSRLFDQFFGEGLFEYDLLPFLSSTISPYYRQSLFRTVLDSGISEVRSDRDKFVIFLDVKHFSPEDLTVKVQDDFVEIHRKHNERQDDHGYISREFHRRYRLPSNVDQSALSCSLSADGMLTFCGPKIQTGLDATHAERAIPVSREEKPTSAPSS
Procedure: (§1) Biotinyl-αA-mini-chaperone-Bpa peptide (200 µg) was incubated with 200 µg of αAG98R crystallin in buffer, pH 7.2, at 37°C for 1 hr. Subsequently, the sample was filtered in a Microcon 10 kDa cut of filter (Millipore, Bedford, MA) to remove free peptides. The sample was photolyzed for 30 min, at 4°C, using a UV lamp (365 nm) held at a distance of 7 cm from the sample. The photolyzed sample was desalted using C18 zip tip spin columns (Thermo Fisher Scientific, Rockford, IL), as per the manufacturer's protocol, and the bound protein was eluted in 70% acetonitrile. […] The UV-photolyzed sample was subjected to SDS-PAGE and western blot analysis using antibody against biotin.
Figure 7 MALDI-TOF MS spectrum of αAG98R photolyzed after incubation with or without biotinyl-Bpa-mini-αA-crystallin. A, αAG98R after photolysis; B, αAG98R photolyzed after incubation with biotinyl-Bpa mini-αA. The αAG98R-Bpa mini-αA complex with m/z 22592 is indicated by an arrow. Mass spectrometric analysis confirms the 1∶1 interaction of mini-chaperone with αAG98R monomer. The figure is representative of 3 independent experiments.

[4] = biological target: T1, αAG98R; assay: Photo-crosslinking, SDS-PAGE and western blot; format: binding; details: for covalent association with αAG98R subunits: photolyzed, SDS-PAGE and western blot
Procedure: as §1
Figure 6 SDS-PAGE analysis of αAG98R cross-linked with biotinylated Bpa-mini-αA. Incubation, photolysis and SDS-PAGE (lanes 1–3), western blot (lanes 4 and 5) analysis were performed as described under methods. Lane 1, photolysed αAG98R; lane 2, αAG98R incubated with biotinyl-Bpa mini-αA and photolyzed; lane 3 mol wt markers. […] This band was absent in non-photolyzed samples (data not shown).Lanes 4 and 5 western blot of lanes 1 and 2 respectively. […] The figure is representative of 3 independent experiments.

[5] = tested on: alcohol dehydrogenase (ADH); assay: ADH aggregation assay, heat-denatured (chaperone-like activity); format: biochemical; details: peptide alone, 43°C
Procedure: (§2) Aggregation assay was performed in 1 ml 50 mM phosphate buffer containing 150 mM NaCl and 100 mM EDTA at 43°C. The chaperone activity of Biotin-[…](Bpa)[…] as well as a Pro-substituted mini-chaperone ([…]) was also measured by ADH aggregation assay. The extent of aggregation was estimated by monitoring the light scattering at 360 nm using a Shimadzu UV-VIS spectrophotometer equipped with a temperature-controlled multi-cell transporter.
Similar to our earlier observation, αAG98R suppressed ADH aggregation during the early part of the 2 hr assay but the assay mixture started to scatter light after 60 min (Figure 5A).
Figure 5 Effect of the addition of αA-crystallin–derived mini-chaperone on the chaperone-like activity of αAG98R against ADH aggregation. […] The figures represent the typical data obtained multiple times with WT-αA-crystallin and stabilized αAG98R.

[6] = biological target: T1, αAG98R; assay: αAG98R recovery with different amounts of mini-chaperone (43°C, 30 min); format: binding; details: 1∶2 ratio (mol/mol) of αAG98R to mini-αA, 10 µM αAG98R
[7] = biological target: T1, αAG98R; assay: Recovery of soluble αAG98R after incubation at 43°C (gel filtration, TSK G5000PWXL); format: biochemical; details: 75 µg αAG98R
Procedure: (§3) Samples were injected on to a TSK G5000PWXL (Tosoh Bioscience, Montgomeryville, PA) size-exclusion column equilibrated with 50 mM sodium phosphate buffer containing 150 mM NaCl (pH 7.2). The flow rate was set to 0.75 ml/min. The column was attached to a HPLC system connected with UV and refractive index detectors and coupled to a static multi-angle laser light scattering (DAWN-EOS) and dynamic quasi-elastic light scattering detectors (Wyatt Technology, Santa Barbara, CA). The molar mass (Mw), hydrodynamic radius (Rh) and polydispersity index (PDI) were determined using ASTRA (5.3.2) software developed by Wyatt Technology.
(§4) We know from previous studies thatαA-mini-chaperone suppresses the aggregation and precipitation of denaturing proteins, [29], [30]. […] The samples were centrifuged to remove any precipitate formed during incubation, and the supernatant was analyzed by TSKG5000 PWXL gel filtration column connected to a multi-angle laser light scattering (DAWN-EOS) and dynamic quasi-elastic light scattering detectors. […] The first peak corresponded to the oligomeric form of αAG98R, whereas the second peak represented dissociated subunits of the mutant protein. […] The hydrodynamic radius (Rh) of the stabilized αAG98R increased from 15.3 nm to 16.4 nm, consistent with increase in molar mass.

[8] = tested on: alcohol dehydrogenase (ADH); assay: EDTA-induced ADH aggregation assay at 37°C; format: biochemical; details: 250 µg ADH, 50 µg peptide, representative of two experiments
Procedure: as §2
The EDTA-induced aggregation of ADH assay was performed at 37°C as described under methods. In each experiment 250 µg of ADH was used. […] The figure is representative of two independent experiments. (TIF) Click here for additional data file.

[9] = biological target: T1, αAG98R; assay: Thermal aggregation monitored by light scattering at 360 nm; format: biochemical; details: 750 µg αAG98R, 1.7∶1 (mol/mol) ratio, 90 min, representative of 3 experiments
Procedure: Light scattering was monitored at 360 nm for 90 min using a spectrophotometer. […] Because αAG98R is a structurally perturbed protein [20], [21], we hypothesize that the mini-chaperone interacted with mutant αAG98R and prevented aggregation and light scattering. […] The aggregation and precipitation of αAG98R also occurred at 37°C but at a slower rate. […] Nearly 80% of αAG98R was recovered when the incubation was carried out with 1∶2 ratio (mol/mol) of αAG98R to mini-αA-.
The protein samples (750 µg) were incubated in 1 ml PO4 buffer, pH 7.2 at 43°C and light scattering was continually monitored at 360 nm for 90 min in a spectrophotometer. […] The figure is representative of 3 independent experiments.

[10] = tested on: ADH, citrate synthase, insulin and α-lactalbumin; parameters: method as in PMID 10660525, PMID 11350603, PMID 11563692; details: ref [26], [29], [30]; cited from earlier work
[11] = tested on: αAG98R / wild-type αA-crystallin; assay: Far-UV CD thermal denaturation (218 nm); format: physicochemical, human; details: 100 µg/400 µl, 10 mM phosphate pH 7.2, listed as αA-crystallin mini-chaperone = αAG98R incubated with it
Procedure: Circular dichroism (CD) spectropolarimeter, J815 (Jasco, Easton, MD), equipped with a temperature control system, was employed to record CD spectra. Far-UV CD measurements were carried out over the wavelength range of 190 to 250 nm with bandwidth 0.5 nm, scan speed 10 nm/min using 0.1-cm path length cuvettes. Protein samples were prepared in 10 mM sodium phosphate buffer (pH 7.2). Spectra are the average of five scans. Buffer signal was subtracted prior to reporting the data. Thermal denaturation data were collected from 25°C to 45°C, with protein concentration of 100 µg/400 µl. Thermal denaturation experiments were performed with a heating rate of 1°C/min, and CD signals at 218 nm were used to determine transition midpoints. Near-UV CD spectra were recorded using a protein sample of 1.5 mg/ml in the buffer used for far-UV studies.
Proteins, 100 µg, were prepared in 400 µl of10 mM phosphate buffer, pH 7.2, and the sample temperatures were slowly raised from 25 to 48°C in 2°C steps, equilibrated for 5 min at each temperature prior to far-UV CD measurement. Molar ellipticity changes at 218 nm were plotted to determine relative stability of samples. […] The spectra were recorded using a protein sample of 1.5 mg/ml. The profile shown is the average of 5 scans.

[12] = tested on: αAG98R / wild-type αA-crystallin oligomer; assay: Multi-angle/quasi-elastic light scattering of αA-crystallin oligomers; format: physicochemical, human; details: 43°C, wild-type protein
Procedure: as §3, §4

Compound: O[C@@H](CS)[C@@H](O)CS (racemic) [dithiothreitol (DTT), dithiothreitol]
restoration of chaperone activity by DTT [1]: restores some of the lost chaperone activity

Compound: Nc1ncnc2c1ncn2[C@@H]1O[C@H](COP(=O)(O)OP(=O)(O)OP(=O)(O)O)[C@@H](O)[C@H]1O [ATP]
modulation of wild-type α-crystallin chaperone activity [2]: Modulation of wild-type α-crystallin chaperone activity

Compound: N=C(N)NN [aminoguanidine]
modulation of wild-type α-crystallin chaperone activity [2]: Modulation of wild-type α-crystallin chaperone activity

Compound: N=C(N)NCCC[C@H](N)C(=O)O [arginine]
modulation of wild-type α-crystallin chaperone activity [2]: Modulation of wild-type α-crystallin chaperone activity

Compound: N[C@@H](CCC(=O)N[C@@H](CS)C(=O)NCC(=O)O)C(=O)O [glutathione]
modulation of wild-type α-crystallin chaperone activity [2]: Modulation of wild-type α-crystallin chaperone activity

Compound: Biotin-DFVIFLDVKH[Bpa]SPEDLTVK [biotinyl-Bpa-mini-chaperone] [listing 1 of 2 here]
Bpa-peptide incorporated into αAG98R subunit [3]: about 10%
αAG98R photo-crosslinked (image analysis of stained gel) ([4]; 200 µg peptide + 200 µg αAG98R, pH 7.2, 37°C, 1 hr, photolysis 365 nm 30 min 4°C, representative of 3 experiments): about 10%
covalent association with αAG98R subunits ([4]; representative of 3 experiments): covalent association of αA-mini-chaperone with αAG98R subunits was observed
covalent association with αAG98R subunits ([4]; representative of 3 experiments, listed as biotinyl-Bpa mini-αA): confirms the binding of a mini-chaperone to a subunit of αAG98R

Compound: Biotin-DFVIFLDVKH[Bpa]SPEDLTVK [biotinyl-Bpa-mini-chaperone] [listing 2 of 2 here]
chaperone activity of Bpa peptide (heat-denatured ADH) [5]: retained chaperone activity
chaperone activity of Bpa peptide (heat-denatured ADH) ([5]; listed as biotin-DFVIFLDVKH(benzoylphenylalanine)SPEDLTVK): active in suppressing the aggregation of heat-denatured ADH
binding stoichiometry (SDS-PAGE/western blot) ([4]; photolyzed mixture): one peptide was incorporated into one subunit of αAG98R

recovery of αAG98R [6]: ~80%
mutant protein recovered in soluble form (percent) ([7]; with or without 10 µg αA-mini-chaperone, 1 hr, listed as αAG98R = absence of mini-chaperone): 79%
Compound: DFVIFLDVKHFSPEDLTVK [αA-mini-chaperone]

chaperone activity of Pro-substituted peptide (EDTA-induced ADH aggregation) [8]: no chaperone activity
Compound: DFVPFLDVKHFSPEDLTVK [Pro-substituted mini-chaperone]
chaperone activity of Pro-substituted peptide (EDTA-induced ADH aggregation) ([8]; listed as αA-mini-chaperone (pro)): Pro-substitution abolishes the chaperone activity of mini-chaperone
suppression of αAG98R aggregation, 43°C [9]: failed to suppress precipitation of the mutant protein
effect on monomeric peak / dissociation / precipitation of αAG98R ([7]; gel filtration TSK G5000PWXL): did not prevent the precipitation of αAG98R

Compound: KFVIFLDVKHFSPEDLTVK [αA70-88, 19 amino acid peptide representing the chaperone site in αA-crystallin]
suppression of aggregation of denaturing ADH, citrate synthase, insulin and α-lactalbumin; chaperone-like function [10]: functions like a molecular chaperone

Compound: wild-type αA-crystallin: recombinant wild-type human αA-crystallin expressed in E. coli
temperature up to which / above which 218 nm ellipticity is stable / changes [11]: 40 °C
oligomeric size and molar mass change upon incubation [12]: oligomeric size and molar mass did not change
